# Experimental data as given in patent US20110207814A1, “Combination Therapy for Breast Cancer Treatment” (priority 2009, published 2011).
# “Also recorded” adds a separate entry of the source.
# What was measured:
# MDA-MB-231 [1] = test system: MDA-MB-231
# Experimental: (§1) Cultures of breast cancer cells and MSCs, alone or in co-culture, from each experimental setup were assayed for cellular proliferation and viability using the CyQuant Cell Proliferation Assay Kit (Molecular Probes; Eugene, Oreg.) and CellTiter-Blue Cell Viability Assay (Promega), respectively, according to manufacturer's specific instructions.
# (§2) For assessment of viability, CellTiter-Blue reagent was added to cells grown in 96-well plates, and then incubated for 4 hours at 37° C. Following incubation, wells were read using a fluorescence microplate reader at 560 nm excitation/590 nm emission. Percent viability was calculated from a reference using untreated healthy cells, which were considered 100% viable, and cell-free wells containing reagent alone, which were considered 0% viable.
# (§3) Breast cancer cells, cultured alone or with MSCs for 12 days, were treated with AMD3100, or untreated. After 48 hours, all cultures were exposed to carboplatin, with re-added AMD3100 in cultures that had initial AMD3100. After 72 hours, the viable cells were counted (A and B), and presented (C and D) as the mean±SD, n=3. Whole cell extracts from these experiments were analyzed by immunoblot for caspase-3 (E). Membranes were stripped and re-probed with β-actin for normalization. Representative blots are shown, n=3.
# (§4) Breast cancer cells cultured in the presence or absence of MSCs for 12 days were treated for 48 hours with AMD3100, or untreated. Following 48 hours, treated and untreated cells were exposed to carboplatin for 72 hours to induce cell death. […] At the end of this regiment cell proliferation (A and B) and viability (C and D) were assessed. The results are presented as the mean±SD, n=3.
# T47D [2] = test system: T47D
# Experimental: as §1, §2, §3, §4
# MDA-MB-231 [3] = assay: Tumor volume of subcutaneous MDA-MB-231 (with or without MSCs) in nude BALB/c mice; assay type: in vivo
# Experimental: To validate our in vitro studies, female nude BALB/c mice were injected subreast cancerutaneously with 10^6 matrigel-resuspended MDA-MB-231 alone or in combination with 10^6 MSCs, as per the experimental design described in FIG. 7A. Mice were divided into the following experimental groups (n=5 per group): (A) breast cancer cells injected alone; (B) breast cancer cells injected in combination with MSCs; (C) group B plus AMD3100 treatment; (D) group C plus IL-1ra co-treatment. All groups were treated with carboplatin at days 8 and 10 following initial injection of cells, and the animals euthanized at the experimental endpoint of day 12 (D12).
# Female nude BALB/c mice (4 weeks) were obtained from Harlan Laboratories (Indianapolis, Ind.) and housed in a laminar flow hood at an AALAC-accredited facility. The use of mice was approved by the Institutional Animal Care and Use Committee, New Jersey Medical School (Newark, N.J.). MDA-MB-231 (10^6), alone or in combination with MSCs (10^6), in 0.1 mL and equal volume of BD Matrigel (BD Biosciences, Bedford, Mass.) were injected by subreast cancerutaneous route in the nude mice (Day 0, D0). After 4 days, the tumors were injected with AMD3100 alone or in combination with IL-1ra or vehicle (hereafter termed ‘treatment’). Mice were given a second ‘treatment’ at D8 along with a first dose of chemotherapy delivered intra-peritoneally. A second dose of chemotherapy was given at D10 and the mice euthanized at D12.
# In FIG. 7, the effects of AMD3100 and carboplatin on tumor volume are represented. The method by which mice were treated is shown in (A). (B) Female BALB/c (n=5) were injected subreast cancerutaneously with matrigel and 10^6 MDA-MB-231 alone or in combination with 10^6 MSCs. The mean volumes at the first injection (day 8, D8) are normalized to 100% and the change in volumes at D10 and D12 are presented as mean±SD.
# breast cancer cells = conditions: 12-day co-culture with MSCs, AMD3100 for the last 48 hours, compared to no treatment
# Experimental: We studied cell cycle phase of 12-day co-cultured breast cancer cells, with or without AMD3100, as described for FIG. 2. Breast cancer cells cultured alone served as control. […] FIG. 3B illustrates a representative histogram of the proportion of cycling (peaks 2 and 3) versus non-cycling (peak 1) MDA-MB-231 co-cultured with MSCs, with (right) or without AMD3100 (left).
# Breast cancer cells and MSC co-cultures were incubated with anti-cytokeratin primary and FITC-anti IgG secondary antibodies to label the breast cancer cell fraction. Cells were then treated with RNase A (1 mg/ml) and fixed with cold 70% ethanol. Cells were stained with 20 μg/ml propidium iodide (PI) solution and transferred to round bottom tubes for DNA analysis by BD FACScan. Double positive cells identified only the desired cellular fraction, consisting of breast cancer cells that incorporated the DNA dye. Cultures incubated with FITC anti-IgG alone were used as isotype controls. All analyses were performed using BD CellQuest software and percent statistics were given.
# Breast cancer cells, alone or 12-day cultures with MSCs were treated with AMD3100 for the last 48 hours or untreated. At the end of the assay, cells were co-labeled with anti-cytokeratin and propidium iodide and then analyzed by flow cytometry. Results are presented as the mean percent cycling cells (S+G2/M phases)±SD, n=3 (B). […]
# [4] = test system: naïve breast cancer cells; assay: Transwell assay: proliferation of naïve breast cancer cells with MSCs in the inner wells; assay type: cell-based, human; conditions: inner wells: MSCs from co-cultures with AMD3100, compared to antagonist-treated MSCs alone; 48 hours
# Experimental: Using mechanistic studies, we next asked whether breast cancer cells proliferation by AMD3100 requires contact between MSCs and breast cancer cells. […] To address this question, we utilized a transwell assay in which “naïve” breast cancer cells, which were not previously exposed to MSCs or AMD3100, were seeded in the outer wells. MSCs from co-cultures with AMD3100 or vehicle were added to the inner wells. In parallel, only vehicle was added to the inner wells.
# Breast cancer cells (5×10^4) were added to the outer well of 24-well transwell cultures, 0.4 μM insert (BD Falcon). In parallel, breast cancer cells were separated from co-cultures with MSCs by positive selection with anti-cytokeratin-conjugated; pan anti-mouse IgG Dynabeads (Invitrogen). MSCs from the negative fraction were then added to the inner wells of the transwell chamber in order to determine the effects of MSC-derived soluble factors on breast cancer cell proliferation. For neutralization of soluble IL-1α and IL-1β, anti-IL-1RI was titrated into the 24-well plates.
# MSCs were co-cultured with breast cancer cells for 12 days with, or without AMD3100. The MSCs were selected and then added to the inner wells of transwell cultures. Naïve breast cancer cells were placed in the outer wells. After 48 hours, breast cancer cells were counted and the results presented as mean±SD, n=3 (A and B). […]
# MDA-MB-231 [5] = test system: MDA-MB-231; remark: listed apart in the source
# Experimental: The study of the molecular disruption of CXCL12-CXCR4 with a CXCR4 antagonist, AMD3100 was expanded. We first examined the effects of AMD3100 on the proliferation of MDA-MB-231 and T47D, in co-culture with MSCs (FIGS. 1D and 1E), in the presence of two different concentrations of the antagonist (10 and 100 ng/ml) for the 48-hour culture. Parallel cultures contained vehicle.
# Some studies also looked at AMD3100 in long-term breast cancer cell/MSC co-cultures. In this set of studies we determined the effect of AMD3100 when breast cancer cells were cultured with MSCs for over 48 hours since this will recapitulate in situ when breast cancer cells are expected to contact MSCs for long periods. […] Control cultures contained vehicle (−) and 2-day exposure to AMD3100 (D2).
# as §1
# For determination of proliferation, cells grown in 96-well plates were frozen overnight at −70° C. The next day, thawed cells were incubated in CyQuant GR dye/cell-lysis buffer for 5 minutes at room temperature, and examined using a fluorescence microplate reader at 480 nm excitation/520 nm emission. Proliferation was calculated from a standard curve of known numbers of breast cancer cells and MSCs. To accurately assess the proliferation of breast cancer cells, but not MSC proliferation in co-culture, proliferation of MSCs grown alone were subtracted from the total cellular proliferation recorded.
# IL-1β = conditions: MDA-MB-231 transwell cultures, MSCs obtained from AMD3100-treated co-cultures, 48 hours
# Experimental: (§5) To assess the factor(s) responsible for breast cancer cell proliferation (FIGS. 4A and 4B), media from representative (MDA-MB-231) transwell cultures were analyzed with a cytokine/growth factor microarray.
# (§6) Cytokine production by MSCs in the transwell assay was assessed using the Human Cytokine Antibody Array 5 (RayBiotech; Norcross, Ga.). Briefly, after 48 hours of culture, the transwell was removed and the breast cancer cell growth media collected for cytokine determination. Background levels obtained with media alone were subtracted. The densities of spots were quantitated with UN-SCAN-IT densitometry software (Silk Scientific; Orem, Utah).
# caspase-3 = conditions: breast cancer cells isolated from co-culture, carboplatin added with AMD3100
# Experimental: Whole cell extracts from breast cancer cells and MSCs were prepared in accordance with accepted methods and 20 μg were analyzed by western blots using 4-20% SDS-PAGE (Bio-Rad, Hercules, Calif.). The proteins were transferred onto polyvinylidene difluoride membranes (Perkin Elmer Life Sciences, Boston, Mass.). Membranes were incubated overnight with primary antibodies and then detected the following day by 2 hour incubation with HRP-conjugated IgG. All primary and secondary antibodies were used at final dilutions of 1/1000 and 1/2000, respectively. HRP was developed with chemiluminscence detection reagent (Perkin Elmer Life Sciences). The membranes were stripped with Restore Stripping Buffer (Pierce, Rockford, Ill.) for reprobing with other antibodies.
# [6] = test system: primary and metastatic breast cancer; conditions: mice; cited from earlier work
# [7] = test system: hematopoietic stem cells (HSCs); conditions: potential side effect in combination with chemotherapy; cited from earlier work
# IL-1α = conditions: MDA-MB-231 transwell cultures, MSCs obtained from AMD3100-treated co-cultures, 48 hours
# Experimental: as §5, §6
# T47D [8] = assay: CyQuant proliferation of T47D, alone or in co-culture with MSCs
# CXCR7 = CXCR7 (Homo sapiens, UniProt P25106); conditions: cited from earlier work
# [9] = MDA-MB-231 + MSCs, AMD3100 48 hours, then carboplatin 72 hours in the absence of AMD3100 (FIG. 6)
# [10] = T47D + MSCs, AMD3100 48 hours, then carboplatin 72 hours in the absence of AMD3100 (FIG. 6)
# Sequence of CXCR7 (P25106 whole entry, species assumed): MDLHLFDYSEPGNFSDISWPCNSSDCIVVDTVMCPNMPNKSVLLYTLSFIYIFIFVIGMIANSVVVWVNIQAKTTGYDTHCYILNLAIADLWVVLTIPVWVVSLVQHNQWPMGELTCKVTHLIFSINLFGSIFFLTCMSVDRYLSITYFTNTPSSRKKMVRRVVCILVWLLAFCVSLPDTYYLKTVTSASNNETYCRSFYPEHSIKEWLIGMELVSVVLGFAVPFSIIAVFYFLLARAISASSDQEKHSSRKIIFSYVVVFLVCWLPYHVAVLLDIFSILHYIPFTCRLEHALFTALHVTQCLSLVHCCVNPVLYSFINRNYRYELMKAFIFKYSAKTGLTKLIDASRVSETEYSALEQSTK
compound,measurement,setting,value
N.N.O=C([O-])C1(C(=O)[O-])CCC1.[Pt+2] [carboplatin],response to carboplatin (viable cells / viability) in co-culture with MSCs,"MDA-MB-231 [1]; MDA-MB-231 + MSCs 12 days, carboplatin 72 hours, no AMD3100, compared to breast cancer cells alone",chemoresistant
same,response to carboplatin (viable cells / viability) in co-culture with MSCs,"T47D [2]; T47D + MSCs 12 days, carboplatin 72 hours, no AMD3100, compared to breast cancer cells alone",chemoresistant
same,mean tumor volume by D12,"MDA-MB-231 [3]; group A: breast cancer cells injected alone, carboplatin at days 8 and 10",drastic reduction in mean tumor volume
same,mean tumor volume by D12,"MDA-MB-231 [3]; group B: breast cancer cells co-injected with MSCs, carboplatin at days 8 and 10, effect on the reduction seen in group A",significantly (p<0.05) impeded
c1cc(CN2CCCNCCNCCCNCC2)ccc1CN1CCCNCCNCCCNCC1 [AMD3100],cycling cells (S/G2/M phase),breast cancer cells,significant (p<0.05) increase in cycling cells
same,cell viability with AMD3100,MDA-MB-231 [1],no change in cell viability
same,resistance to carboplatin when chemotherapy was added with AMD3100,"MDA-MB-231 [1]; MDA-MB-231 + MSCs 12 days, AMD3100 48 hours then carboplatin with re-added AMD3100 72 hours",resistance was compromised
same,viability after AMD3100 pre-treatment and chemotherapy without the antagonist,MDA-MB-231 [1]; [9],effect on cell proliferation and viability was lost
same,cell viability with AMD3100,T47D [2],no change in cell viability
same,resistance to carboplatin when chemotherapy was added with AMD3100,"T47D [2]; T47D + MSCs 12 days, AMD3100 48 hours then carboplatin with re-added AMD3100 72 hours",resistance was compromised
same,viability after AMD3100 pre-treatment and chemotherapy without the antagonist,T47D [2]; [10],effect on cell proliferation and viability was lost
same,naïve breast cancer cell proliferation in transwells,[4],significant (p<0.05) increase
same,mean tumor volume by D12,"MDA-MB-231 [3]; group C: breast cancer cells + MSCs, tumors injected with AMD3100, carboplatin at days 8 and 10",significant reduction in tumor volume; also recorded: significantly (p<0.05) reversed the chemoprotective effect of MSCs
same,proliferation in 12-day (D12) co-culture with MSCs,"MDA-MB-231 [5]; MDA-MB-231 + MSCs 12 days, optimal AMD3100 during the last 48 hours, effect on the MSC-mediated decrease",significantly (p<0.05) reversed
same,AMD3100 concentration of sensitivity (optimal dose for proliferation),"MDA-MB-231 [5]; MDA-MB-231 + MSCs, 48-hour culture",10 ng/mL
same,proliferation of breast cancer cells in co-cultures with MSCs,"MDA-MB-231 [5]; MDA-MB-231 + MSCs, 48-hour culture, AMD3100 10 and 100 ng/ml, compared to breast cancer cells alone (FIG. 1D)",promoted the proliferation
same,cell proliferation after AMD3100 pre-treatment and chemotherapy without the antagonist,MDA-MB-231 [5]; [9],effect on cell proliferation and viability was lost
same,time at which the increase in proliferation began,"MDA-MB-231 [5]; MDA-MB-231, optimal AMD3100 dose",1 h
same,optimum time for AMD3100-mediated proliferation,"MDA-MB-231 [5]; MDA-MB-231, optimal AMD3100 dose, various times (FIG. 1F)",48 h
same,proliferation of breast cancer cells alone,"MDA-MB-231 [5]; MDA-MB-231 cultured alone, 48 hours, AMD3100",decrease in cell proliferation
same,"IL-1β in transwell media, fold greater",IL-1β,5 fold
same,caspase-3 immunoreactivity,caspase-3,increased caspase-3 immunoreactivity
same,effect on primary and metastatic breast cancer,[6],can decrease primary and metastatic breast cancer in mice
same,overall survival for experimental lung metastases,[6],no effect on the overall survival
same,mobilization of hematopoietic stem cells,[7],can mobilize hematopoietic stem cells
same,"IL-1α in transwell media, fold greater",IL-1α,3 fold
same,proliferation in 12-day (D12) co-culture with MSCs,"T47D [8]; T47D + MSCs 12 days, optimal AMD3100 during the last 48 hours, effect on the MSC-mediated decrease",significantly (p<0.05) reversed
same,AMD3100 concentration of sensitivity (optimal dose for proliferation),"T47D [8]; T47D + MSCs, 48-hour culture",100 ng/mL
same,proliferation of breast cancer cells in co-cultures with MSCs,"T47D [8]; T47D + MSCs, 48-hour culture, AMD3100 10 and 100 ng/ml, compared to breast cancer cells alone (FIG. 1E)",promoted the proliferation
same,cell proliferation after AMD3100 pre-treatment and chemotherapy without the antagonist,T47D [8]; [10],effect on cell proliferation and viability was lost
same,proliferation of breast cancer cells alone,"T47D [8]; T47D cultured alone, 48 hours, AMD3100",decrease in cell proliferation
same,relation of proliferation to AMD3100 concentration,"T47D [8]; T47D, closed circles FIG. 1E, 10 and 100 ng/ml",inversely related to AMD3100 concentration
same,time at which the increase in proliferation began,"T47D [8]; T47D, optimal AMD3100 dose, relative to MDA-MB-231",at a later time point
same,optimum time for AMD3100-mediated proliferation,"T47D [8]; T47D, optimal AMD3100 dose, various times (FIG. 1G)",48 h
same,action on CXCR7,CXCR7,allosteric agonist of CXCR7
IL-1ra: IL-1 receptor antagonist used to block the activity of IL-1 in the mouse tumor model,mean tumor volume by D12,"MDA-MB-231 [3]; group D: group C plus IL-1ra co-treatment, effect on the AMD3100 response",negated this response
